This test addresses MbcT (Rv1989c) (Mycobacterium tuberculosis, UniProt P9WLP9).

Each structure is given as a SMILES string.

Chain of MbcT (Rv1989c) (P9WLP9 whole entry): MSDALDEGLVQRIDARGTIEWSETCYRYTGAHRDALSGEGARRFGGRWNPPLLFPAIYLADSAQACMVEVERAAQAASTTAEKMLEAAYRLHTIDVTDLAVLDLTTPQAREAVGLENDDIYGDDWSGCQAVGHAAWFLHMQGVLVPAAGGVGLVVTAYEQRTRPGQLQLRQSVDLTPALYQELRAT

Turning to `NC(=O)c1ccc[n+]([C@@H]2O[C@H](COP(=O)(O)OP(=O)(O)OC[C@H]3O[C@@H](n4cnc5c(N)ncnc54)[C@H](O)[C@@H]3O)[C@@H](O)[C@H]2O)c1` [NAD^+], the Km worked out at 110 ± 8 µM.

The values above are taken from publication PMC6436930 (Molecular Cell, 2019).
